# Measurements reported in patent US20230017045A1, “PYRIDINE AND PYRIMIDINE CARBOXYLATE HERBICIDES AND METHODS OF USE THEREOF” (Dow AgroSciences LLC, priority 2017, published 2023).
# Read-outs that look alike come from different tables or passages of the source.
# System: test plant species
# Assay: Post-emergent herbicidal activity test (greenhouse, foliar spray, visual growth reduction)
# Type: in vivo
# Details: post-emergence, 336 h, 140 g ai/ha
# Description: Post-emergent Test: Seeds or nutlets of the desired test plant species were planted in Sun Gro Metro-Mix® 360 planting mixture, which typically has a pH of 6.0 to 6.8 and an organic matter content of about 30 percent, in plastic pots with a surface area of 64 square centimeters. In some aspects, to ensure good germination and healthy plants, a fungicide treatment and/or other chemical or physical treatment was applied. The plants were grown for 7-21 d in a greenhouse with an approximate 15 h photoperiod which was maintained at 23-29° C. during the day and 22-28° C. during the night. Nutrients and water were added on a regular basis and supplemental lighting was provided with overhead metal halide 1000-Watt lamps as necessary. Plants were used for testing when they reached the first or second true leaf stage. A weighed amount, determined by the highest rate to be tested, of each test compound was placed in a 25 mL glass vial and was dissolved in 4 mL of a 97:3 v/v mixture of acetone and DMSO to obtain concentrated stock solutions. […] The concentrated stock solutions obtained were diluted with 20 mL of an aqueous mixture containing acetone, water, isopropyl alcohol, DMSO, […] crop oil concentrate, and X-77 surfactant in a 48.5:39:10:1.5:1.0:0.02 v/v ratio to obtain spray solutions containing the application rate. Compound requirements are based upon a 12 mL application volume at a rate of 187 liters per hectare (L/ha). Formulated compounds were applied to the plant material with an overhead Mandel track sprayer equipped with […] nozzles calibrated to deliver 187 L/ha over an application area of 0.64 square meters at a spray height of 18 inches (43 cm) above the average plant canopy height. Control plants were sprayed in the same manner with the solvent blank. The treated plants and control plants were placed in a greenhouse as described above and watered by subirrigation to prevent wash-off of the test compounds. After 14 d, the condition of the test plants as compared with that of the nontreated and control plants was determined visually and scored on a scale of 0 to 100 percent where 0 corresponds to no injury and 100 corresponds to complete control. In the reporting of the results, Table A: Percent Growth Reduction Conversion Table was used.
# [1] = ALOMY: blackgrass (Alopecurus myosuroides), 14 days after application, read-out: Visual Growth Reduction (%) 14 Days After Application, ALOMY
# [2] = AMARE: redroot pigweed (Amaranthus retroflexus), 14 days after application, read-out: Visual Growth Reduction (%) 14 Days After Application, AMARE
# [3] = AVEFA: wild oat (Avena fatua), 14 days after application, read-out: Visual Growth Reduction (%) 14 Days After Application, AVEFA
# [4] = CHEAL: lambsquarters (Chenopodium album), 14 days after application, read-out: Visual Growth Reduction (%) 14 Days After Application, CHEAL
# [5] = CIRAR: canada thistle (Cirsium arvense), 14 days after application, read-out: Visual Growth Reduction (%) 14 Days After Application, CIRAR
# [6] = CYPES: yellow nutsedge (Cyperus esculentus), 14 days after application, read-out: Visual Growth Reduction (%) 14 Days After Application, CYPES
# [7] = DIGSA: crabgrass (Digitaria sanguinalis), 14 days after application, read-out: Visual Growth Reduction (%) 14 Days After Application, DIGSA
# [8] = ECHCG: barnyardgrass (Echinochloa crus-galli), 14 days after application, read-out: Visual Growth Reduction (%) 14 Days After Application, ECHCG
# [9] = IPOHE: ivy-leaf morning glory (Ipomoea hederacea), 14 days after application, read-out: Visual Growth Reduction (%) 14 Days After Application, IPOHE
# [10] = KCHSC: kochia (Bassia scoparia), 14 days after application, read-out: Visual Growth Reduction (%) 14 Days After Application, KCHSC
# [11] = ORYSA: rice (Oryza sativa), 14 days after application, read-out: Visual Growth Reduction (%) 14 Days After Application, ORYSA
# [12] = SETFA: giant foxtail (Setaria faberi), 14 days after application, read-out: Visual Growth Reduction (%) 14 Days After Application, SETFA
# [13] = SORVU: grain sorghum (Sorghum vulgare), 14 days after application, read-out: Visual Growth Reduction (%) 14 Days After Application, SORVU
# [14] = STEME: common chickweed (Stellaria media), 14 days after application, read-out: Visual Growth Reduction (%) 14 Days After Application, STEME
# [15] = TRZAS: wheat, spring (Triticum aestivum), 14 days after application, read-out: Visual Growth Reduction (%) 14 Days After Application, TRZAS
# [16] = blackgrass (Alopecurus myosuroides), 14 Days After Application, read-out: Visual Growth Reduction (%) ALOMY
# [17] = canada thistle (Cirsium arvense), 14 Days After Application, read-out: Visual Growth Reduction (%) CIRAR
# [18] = crabgrass (Digitaria sanguinalis), 14 Days After Application, read-out: Visual Growth Reduction (%) DIGSA
# [19] = lambsquarters (Chenopodium album), 14 Days After Application, read-out: Visual Growth Reduction (%) CHEAL
# [20] = redroot pigweed (Amaranthus retroflexus), 14 Days After Application, read-out: Visual Growth Reduction (%) AMARE
# [21] = wild oat (Avena fatua), 14 Days After Application, read-out: Visual Growth Reduction (%) AVEFA
# [22] = yellow nutsedge (Cyperus esculentus), 14 Days After Application, read-out: Visual Growth Reduction (%) CYPES
SMILES,pest or weed control at 140 g/ha [1],pest or weed control at 140 g/ha [2],pest or weed control at 140 g/ha [3],pest or weed control at 140 g/ha [4],pest or weed control at 140 g/ha [5],pest or weed control at 140 g/ha [6],pest or weed control at 140 g/ha [7],pest or weed control at 140 g/ha [8],pest or weed control at 140 g/ha [9],pest or weed control at 140 g/ha [10],pest or weed control at 140 g/ha [11],pest or weed control at 140 g/ha [12],pest or weed control at 140 g/ha [13],pest or weed control at 140 g/ha [14],pest or weed control at 140 g/ha [15],pest or weed control at 140 g/ha [16],pest or weed control at 140 g/ha [17],pest or weed control at 140 g/ha [18],pest or weed control at 140 g/ha [19],pest or weed control at 140 g/ha [20],also measured
"C#Cc1cc(C(F)(F)F)ccc1-c1ccc(Cl)c(C(=O)OC)n1 [F16, methyl 3-chloro-6-(2-ethynyl-4-(trifluoromethyl)phenyl) picolinate]",0 to 29%,30 to 44%,0 to 29%,0 to 29%,30 to 44%,0 to 29%,0 to 29%,–,–,–,–,–,–,–,–,–,–,–,–,–,"pest or weed control at 140 g/ha (barnyardgrass (Echinochloa crus-galli), 14 Days After Application, read-out: Visual Growth Reduction (%) ECHCG): 0 to 29%; pest or weed control at 140 g/ha (common chickweed (Stellaria media), 14 Days After Application, read-out: Visual Growth Reduction (%) STEME): 0 to 29%; pest or weed control at 140 g/ha (giant foxtail (Setaria faberi), 14 Days After Application, read-out: Visual Growth Reduction (%) SETFA): 0 to 29%; pest or weed control at 140 g/ha (ivy-leaf morning glory (Ipomoea hederacea), 14 Days After Application, read-out: Visual Growth Reduction (%) IPOHE): 95 to 100%; pest or weed control at 140 g/ha (johnsongrass (Sorghum vulgare), 14 Days After Application, read-out: Visual Growth Reduction (%) SORVU): 75 to 84%; pest or weed control at 140 g/ha (kochia (Bassia scoparia), 14 Days After Application, read-out: Visual Growth Reduction (%) KCHSC): 0 to 29%; pest or weed control at 140 g/ha (rice (Oryza sativa), 14 Days After Application, read-out: Visual Growth Reduction (%) ORYSA): 0 to 29%; pest or weed control at 140 g/ha (wheat, spring (Triticum aestivum), 14 Days After Application, read-out: Visual Growth Reduction (%) TRZAS): 0 to 29%"
"COC(=O)c1nc(-c2ccc(C(F)(F)F)nc2)c(O)cc1Cl [F87, methyl 5-chloro-3-hydroxy-6′-(trifluoromethyl)-[2,3′-bipyridine]-6-carboxylate]",0 to 29%,0 to 29%,0 to 29%,0 to 29%,0 to 29%,0 to 29%,0 to 29%,0 to 29%,0 to 29%,0 to 29%,0 to 29%,0 to 29%,0 to 29%,0 to 29%,0 to 29%,–,–,–,–,–,–
"O=C(OCc1ccc(Cl)cc1Cl)c1nc(-c2ccc(C(F)(F)F)cc2Cl)ccc1Cl [F116, 2,4-dichlorobenzyl 3-chloro-6-(2-chloro-4-(trifluoromethyl)phenyl)picolinate]",30 to 44%,95 to 100%,45 to 59%,85 to 94%,85 to 94%,0 to 29%,85 to 94%,75 to 84%,85 to 94%,75 to 84%,0 to 29%,60 to 74%,85 to 94%,0 to 29%,60 to 74%,–,–,–,–,–,–
"COC(=O)c1nc(-c2cc3c(cc2Cl)OCO3)c(Cl)cc1Cl [F155, Methyl 3,5-dichloro-6-(6-chlorobenzo[d] [1,3]dioxol-5-yl)picolinate]",0 to 29%,60 to 74%,0 to 29%,75 to 84%,0 to 29%,0 to 29%,0 to 29%,0 to 29%,0 to 29%,0 to 29%,0 to 29%,0 to 29%,0 to 29%,0 to 29%,0 to 29%,–,–,–,–,–,–
"Cc1cc(C(F)(F)F)ccc1-c1nc(C(=O)O)c(Cl)cc1F [F267, 3-Chloro-5-fluoro-6-(2-methyl-4-(trifluoromethyl)phenyl) picolinic acid]",–,–,–,–,–,–,–,75 to 84%,95 to 100%,60 to 74%,0 to 29%,85 to 94%,95 to 100%,0 to 29%,60 to 74%,30 to 44%,85 to 94%,85 to 94%,95 to 100%,95 to 100%,pest or weed control at 140 g/ha [21]: 45 to 59%; pest or weed control at 140 g/ha [22]: 0 to 29%
"O=C(O)c1nc(-c2cc(F)c3c(c2)OC(F)(F)O3)ccc1Cl [F368, 3-Chloro-6-(2,2,7-trifluorobenzo[d][1,3]dioxol-5-yl)picolinic acid]",–,–,–,–,–,–,–,0 to 29%,95 to 100%,0 to 29%,0 to 29%,45 to 59%,75 to 84%,0 to 29%,0 to 29%,0 to 29%,0 to 29%,75 to 84%,0 to 29%,0 to 29%,pest or weed control at 140 g/ha [21]: 0 to 29%; pest or weed control at 140 g/ha [22]: 0 to 29%
"COC(=O)c1nc(-c2ccc(F)c3c2OC(F)(F)O3)c(F)cc1Cl [F234, Methyl 3-chloro-5-fluoro-6-(2,2,7-trifluorobenzo[d][1,3]dioxol-4-yl)picolinate]",–,–,–,–,–,–,–,0 to 29%,60 to 74%,0 to 29%,0 to 29%,0 to 29%,0 to 29%,0 to 29%,0 to 29%,0 to 29%,0 to 29%,30 to 44%,30 to 44%,0 to 29%,pest or weed control at 140 g/ha [21]: 0 to 29%; pest or weed control at 140 g/ha [22]: 0 to 29%
